Test: Human HepG2 cell viability assay in 384 well format
Type: toxicity, cell-based
Parameters: dose 125 nL, time 70.5 hour; cytotoxicity at 70.5 h: concentration not given beside the values
Details: HepG2 cells, read-out: Inhibition

SMILES	cytotoxicity at 70.5 h
O=C(c1cc(-c2cccs2)nc2ccccc12)N1CCN(CCO)CC1	0.548%
Cc1cc(O)cc(C2CCCN2C(=O)c2ccncc2)n1 (centres undefined)	-5.31%
CC[C@@H](Cn1ncc2ccccc2c1=O)NC(=O)c1ccco1	-8.28%
Cc1ncc(CN2CCc3c(nc4cc(C5CC5)nn4c3O)C2)n1C	-2.73%
O=C(Cc1cccc(F)c1F)NC1COc2ccccc2C1=O (centres undefined)	-10.6%
Cc1nn(C)c(C)c1NC(=O)CNC(c1ccccc1)C1CCCC1 (centres undefined)	-9.64%
CCCN(CCC)C(=O)c1sc(C)nc1C	-7.05%
CC(SCCNS(=O)(=O)c1cnn(C)c1)c1cccs1 (centres undefined)	-4.4%
CCc1cnc(CNC(=O)NC2CC(C)(C)OC2(C)C)s1 (centres undefined)	12.1%
Cc1nc(C)c(CNC(=O)NC2CC(C)(C)OC2(C)C)s1 (centres undefined)	-0.473%
Cc1nc(-c2cccs2)ccc1C(=O)N1CCN(CCO)CC1	0.744%
CCC(CC)(CNC(=O)c1cccn1Cc1cccnc1)N(C)C	-3.43%
Cc1cc(NC(=O)c2ccc(C)c(F)c2)[nH]n1	-1.85%
Cc1ccc(-c2nc(CC(=O)NCC3CCOC3)cs2)o1 (centres undefined)	-2.56%
COCCCc1nc(-c2ccc(S(=O)(=O)N3CCCC3)cc2)cs1	-4.93%
CC(C#N)CN(C)Cc1cc(Cl)cc2cccnc12 (centres undefined)	-0.893%
Cc1ccc(-c2nc(CC(=O)NCC3CCCOC3)cs2)o1 (centres undefined)	-0.602%
CC1CCCN(C(=O)c2cn(-c3ccc(C(F)(F)F)cn3)nn2)C1 (centres undefined)	12.2%
CCc1ccc2c(c1)C(CCNC(=O)CCc1ccsc1)C(=O)N2 (centres undefined)	-2.26%
NS(=O)(=O)c1ccc(NCc2ccccc2)cc1C(F)(F)F	4.82%
CCc1nnc(S(=O)(=O)Cc2cc(Cl)c3c(c2)OCO3)n1C	-1.18%
CCN(C)S(=O)(=O)c1c(F)cc(NC(C)=O)cc1F	-2.83%
O=C(c1ccc(-c2cccs2)cc1F)N1CCN(CCO)CC1	-2.06%
Cc1nc(-c2ccccc2)ccc1C(=O)N1CCN(CCO)CC1	-1.89%

SMILES	cytotoxicity at 70.5 h
Cc1ccc(C(=O)N(C)S(C)(=O)=O)cc1Cl	-1.55%
Cc1ccc(C)c(-n2ncc(NC(=O)NC3(C)CCOC3)c2C)c1 (centres undefined)	14.4%
CC(C)C(C)NC(=O)c1cccn1Cc1cccnc1 (centres undefined)	-0.474%
Cc1ccc(C)c(-n2nnnc2SCN2CCCCC2=O)c1	-3.06%
CCOCCCNC(=O)c1cccn1Cc1cccnc1	-4.46%
CN1CCN(C(=O)CCC(=O)c2cccs2)Cc2ccccc21	-0.893%
CN1CCN(C(=O)c2cccs2)Cc2ccccc21	-0.544%
CC(=O)N(C)Cc1ccccc1NC(=O)c1ccccc1C	-2.28%
N#Cc1cnc2cc(F)cc(F)c2c1NC1CCN(CC(N)=O)CC1	-4.4%
O=C(CSc1nnc(N2CCOCC2)s1)NCc1cccs1	-2.54%
O=C(Nc1ccc(F)cc1)N1CCC(CO)(Nc2ccccc2)CC1	0.526%
CN(CC(=O)Nc1cnn(-c2ccccc2S(C)(=O)=O)c1)C1CC1	-3.94%
CC(C)C(NC(=O)N1CCS(=O)(=O)CC1)c1ccccc1Cl (centres undefined)	-5.93%
Cn1cc(NS(=O)(=O)CCOc2ccc(F)cc2)cn1	-4.23%
Cc1cccc(C2CCCCCN2C(=O)c2cn(CC(N)=O)nn2)c1 (centres undefined)	-6.65%
Cc1ccc(S(=O)(=O)NC(=O)CCC(F)(F)F)cc1N(C)C	-1.96%
Cc1ccc(S(=O)(=O)NC(=O)CCc2ccccc2)cc1N(C)C	-5.27%
O=C(Nc1cn[nH]c1)N1CCCCCC1c1ccncc1 (centres undefined)	-8.75%
CC(NC(=O)N1CCNC(=O)CC1)c1c(F)cccc1Cl (centres undefined)	-4.44%
CCCS(=O)(=O)N1CCN(C(C)(C)CO)CC1	15.5%
CN(CC(C)(CO)CO)C(=O)Nc1cc(F)cc(Cl)c1	-6.37%
CC(NCCCN1CCCC1=O)c1ccc(F)cc1N(C)C (centres undefined)	-4.56%
CC(NCC1(N(C)C)CCOCC1)c1ccc(S(C)(=O)=O)cc1 (centres undefined)	-3.6%
CC(NCCCN1CCCC1=O)c1cc(Br)ccc1O (centres undefined)	-5.37%

SMILES	cytotoxicity at 70.5 h
Cn1cc(NCCOc2ccc(F)cc2)cn1	-5.12%
Cc1ccc(O)c(CNc2cccc(CN3CCN(C)CC3)c2)n1	-0.441%
CC1CCCCN1C(=O)CCc1nnc(-c2ccccc2)o1 (centres undefined)	-1.68%
NC(=O)CS(=O)(=O)Cc1csc(-c2ccccc2)n1	-4.61%
O=C(Cc1ccc2c(c1)CCCC2)Nc1cccnc1N1CCSCC1	-7.86%
O=C(Nc1cccnc1N1CCSCC1)c1cc2c(s1)CCCCC2	-6.67%
Cc1nc(-c2ccccc2)sc1CNC(=O)c1ccc(=O)n(C)c1	-3.22%
Cc1c(C(=O)N2CCC2)nnn1-c1ccc2ncccc2c1	-3.53%
Cc1ccc(S(=O)(=O)Nc2ccc(-n3ccnc3C)nc2)cc1N(C)C	-2.22%
Cc1cccc(NCc2nc(C)ccc2O)c1	-1.28%
COCCN1CCC(CNC(=O)CCc2cc(F)ccc2F)C1 (centres undefined)	-4.52%
CCc1ccc(C(=O)N2CCCN(Cc3csc(CC)n3)CC2)o1	6.45%
CCN1CCN(C(=O)c2ccc(OC)nn2)c2ccccc21	-0.876%
CN(C)C(=O)CN(C)C(=O)c1cccn1CCc1ccccc1	-3.57%
c1cnnc(N2CCCC(NCc3cccc4c3OCO4)C2)c1 (centres undefined)	1.39%
COc1ccc(OC)c(CNC2CCCN(c3cccnn3)C2)c1 (centres undefined)	-3.12%
CCc1nc(CN2CCN(C(=O)c3cc(C)nn3C)CC2)cs1	-6.68%
CCN1CCN(C(=O)c2csnn2)c2ccccc21	9.42%
CS(=O)(=O)Cc1noc(CN(Cc2ccco2)c2ccccc2)n1	-5.15%
NC(=O)c1ccc(CNC(=O)NCc2cc[nH]n2)cc1	-12.2%
Cc1noc(C)c1C(=O)N(C)C(C)c1ccc(S(C)(=O)=O)cc1 (centres undefined)	-20.5%
O=C(NCC1CCOC1)c1cc(-c2ccc(Cl)cc2)n[nH]1 (centres undefined)	20.6%
CC(NC(=O)NC1CCN(Cc2ccncc2)CC1)c1ccccc1F (centres undefined)	-22.4%
Cc1cc(N(C)CC2COc3ccccc3O2)nc(N)n1 (centres undefined)	-5.43%

SMILES	cytotoxicity at 70.5 h
COc1cccc(CNC(=O)C(C)N2CC(n3nc(C)cc3C)C2)c1 (centres undefined)	-12.9%
Cc1noc(C)c1C(=O)N(C)C(C)c1cccnc1 (centres undefined)	-15.6%
COc1ccccc1CNC(=O)C(C)N1CC(n2cc(C)cn2)C1 (centres undefined)	-10.8%
CNS(=O)(=O)CC(=O)N(C1CCCC1)C1CC1	-12.4%
CN(CCOc1ccccc1)C(=O)Nc1cccn(C)c1=O	20.8%
O=C1CSCN1Cc1nc(-c2ccc(N3CCCCC3)cc2)no1	-5.66%
O=C1OCCCN1Cc1nc(-c2ccc(N3CCCCC3)cc2)no1	-11.4%
NC(=O)c1ccc(NC(=O)N2CCN(c3cccs3)CC2)c(F)c1	-16.2%
CC(C)c1noc(C(C)N2CCN(Cc3nc4ccccc4[nH]3)CC2)n1 (centres undefined)	-8.5%
CCN(CC)C(=O)N1CCOCC1c1c(C)nn(C)c1C (centres undefined)	-10.5%
Cc1nn(C)c(C)c1C1COCCN1C(=O)CSC(C)(C)C (centres undefined)	-18.7%
CC(C)N(C)S(=O)(=O)N(Cc1cccs1)CC1CCCO1 (centres undefined)	37.4%
CNC(=O)NC(=O)C(NCc1ccccc1)c1ccccc1 (centres undefined)	17.9%
COCCOc1ncccc1CNC(=O)N1CCCCCC1	-12.7%
CCCN(CC1COc2ccccc2O1)C(=O)CCN1C(=O)CCC1=O (centres undefined)	-18.8%
CCC1CCCN(Cc2nc3ccccc3c(=O)[nH]2)C1 (centres undefined)	-14%
O=C(CCSc1ccccc1F)N1CCN(c2cnccn2)CC1	11%
Cc1cc(C)c(CNC(=O)NCCNc2ccccn2)c(=O)[nH]1	-9.53%
Cc1occc1C(=O)NCC(=O)NCCCOc1ccc(F)cc1	-17.7%
O=C(CCSc1ccc(F)cc1)N1CCN(c2cnccn2)CC1	-14.2%
COCCOc1ncccc1C(=O)N(C)c1nccs1	-14.2%
CC(=O)c1cccc(NC(=O)NCCc2nnc[nH]2)c1	-10.6%
CCC(=O)NCC(CC)Oc1cccc(F)c1 (centres undefined)	-3.64%
CCC(CNC(=O)CNC(C)=O)Oc1cccc(F)c1 (centres undefined)	-9.82%

SMILES	cytotoxicity at 70.5 h
Cc1nc(CC2CCCN(Cc3nc(N)c4ccccc4n3)C2)no1 (centres undefined)	-7.12%
Cc1ncc(S(=O)(=O)N(CC(C)C)c2cccc(O)c2)s1	-1.45%
CC(C)n1cc(CN2CCCN(C(=O)C3(C)CCOCC3)CC2)cn1	-11.5%
COc1ccccc1CN(Cc1cccs1)S(=O)(=O)N(C)C(C)C	-2.73%
CC(C)N(C)S(=O)(=O)N(Cc1cccs1)Cc1cccs1	-12.9%
Cc1nc(C(=O)N2CCCC(c3nc(C(C)C)cs3)C2)c[nH]1 (centres undefined)	12.6%
CCN(CC)CC(=O)N1CCN(CCc2ccncc2)CC1	-9.33%
COC(=O)C1CN(Cc2ccc(-c3ccncc3)cc2F)C[C@@H](C)O1 (some centres undefined)	11.8%
COc1cccc(CNC(=O)CCOc2ccccc2C)c1	-10.3%
COC(=O)c1ccc(Cl)c(S(=O)(=O)Nc2ccc(F)c(C(N)=O)c2)c1	-14.5%
O=C(CC1CCN(c2ncnc3ccccc23)CC1)N1CCCC1	-6.95%
CSCc1ccc(CNCCCN2CCOCC2)o1	-12.3%
Cc1ccccc1OCCCC(=O)NCc1ccnc(O)c1	-11.5%
CC(NC(=O)Nc1cccnc1N1CCOCC1)c1ccncc1 (centres undefined)	6.43%
CC(C)C(=O)NS(=O)(=O)CCc1ccccc1	-12.8%
Cc1nc(Cn2cc(C#N)c(=O)c3ccccc32)no1	-5.75%
Cc1noc(C)c1CN1CCCC1C(=O)OCc1ccccc1 (centres undefined)	-10.7%
Cc1oc(C)c(C(=O)NS(=O)(=O)c2ccc3c(c2)OCCO3)c1Br	-17.9%
CC(=O)N1CCCN(C(C)C(=O)Nc2ccnn2C(C)C)CC1 (centres undefined)	-3.26%
COCCN(CCC#N)S(=O)(=O)c1cc(F)ccc1F	-2.55%
NCC1(c2cccc(C(F)(F)F)c2)CCC1	-2.75%
COc1cccc(CN(C)Cc2cc(C#N)ccc2F)c1OC	-9.77%
CCCn1nc2c(cc1=O)CN(Cc1cc(C)no1)CC2	-8.28%
